# Active and inactive are the calls of the source.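 The calls were made as follows: active = compounds whose fitted concentration for half loss of dye binding is under 10 µM; inactive = the rest.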
# System: FAP-tagged hCCR5 cells, MG2p fluorogen binding, flow cytometry
# Test: FAP-tagged hCCR5 fluorogen binding interference – cell-based, FAP-tagged human CCR5, Powderset3, counter-screen for beta2AR agonist project, dose response (AID 651855)
# Details: not given
row,SMILES,EC50 [nM]
1,C=CCn1c(CCNC(=O)c2cccs2)nnc1SCC(=O)c1cccc([N+](=O)[O-])c1,2.41
2,CSc1nc(SCCO)c2sc3nc(-c4ccco4)c4c(c3c2n1)CC(C)(C)OC4,1870
3,CC(Oc1ccc(Cl)cc1Cl)c1nc(-c2ccc(NC(=O)c3ccccn3)cc2)no1 (configuration not stated),427
4,CC(Sc1nc(-c2ccccc2)cc(C(F)(F)F)n1)C(=O)N1CCCCC1 (configuration not stated),25.5
5,C=CCn1c(CCNC(=O)c2cccs2)nnc1SCC(=O)c1ccc(Br)cc1,17.5
6,Clc1cccc(-c2nnc(SCc3nc4ccccc4[nH]3)n2Cc2ccco2)c1,10400
7,CN(Cc1ccccc1)S(=O)(=O)c1ccc(NS(=O)(=O)Cc2ccccc2)cc1,106
8,CC1(C)Cc2c(c(N3CCCC3)nc3sc4c(N5CCN(CCO)CC5)ncnc4c23)CO1,2960
9,C=CCn1c(CCNC(=O)c2cccs2)nnc1SCC(=O)c1ccc(Cl)cc1,7.09
10,Cc1ccccc1N1CCN(c2ncnc3c2cnn3Cc2ccc(Cl)cc2)CC1,4330
11,CC(Sc1nc(-c2ccccc2)cc(C(F)(F)F)n1)C(=O)N1CCOCC1 (configuration not stated),26.9
12,Cc1ccc(Cn2ccc(NC(=O)c3cc4nc(-c5ccco5)cc(C(F)(F)F)n4n3)n2)cc1,8.96
13,Cc1ccc(OCc2cc(C(=O)N(C)Cc3cnn(-c4ccccc4C)c3)no2)cn1,110
14,COc1ccc(OC)c(CCNC(=O)C2CCN(c3nnc(-n4cccc4)s3)CC2)c1,919
15,Cn1c(N2CCN(c3ccccn3)CC2)nc2c1c(=O)n(Cc1ccc(Cl)cc1)c(=O)n2C,20.9
16,CC(C)Cc1nc2sc3c(NCc4ccco4)ncnc3c2c2c1COC(C)(C)C2,39.4
17,CC(=O)Nc1ccc(S(=O)(=O)N2CCC(Oc3ccc(-n4cnnn4)cc3)CC2)cc1,60.9
18,Clc1ccc(OCc2nnc(SCc3nc4ccccc4[nH]3)n2Cc2ccco2)cc1,10
19,Cc1ncc(CN2CCCC(C(=O)Nc3ccc(-c4cccc(F)c4)cc3)C2)s1 (configuration not stated),1240

# System: not listed separately
# Test: as above
# Details: FAP-tagged hCCR5 cells, MG2p fluorogen binding, flow cytometry; active compounds read high
row,SMILES,percent span
1,CC(Oc1ccc(Cl)cc1Cl)c1nc(-c2ccc(NC(=O)c3ccco3)cc2)no1 (configuration not stated),42.1% (inactive)
2,COC(=O)c1ccc(CNC(=O)c2cc(COc3cncc(Cl)c3)on2)cc1,28.2% (inactive)
3,CC(C)CNc1ncnc2c1sc1nc(N3CCOCC3)c3c(c12)CC(C)(C)OC3,-9.78% (inactive)
4,CC1(C)Cc2c(c(N3CCOCC3)nc3sc4c(NCCN)ncnc4c23)CO1,116% (inactive)
5,c1ccc(-c2nnc(SCc3nc4ccccc4[nH]3)n2Cc2ccco2)cc1,15.8% (inactive)
6,O=C(c1cc2c(=O)n3ccccc3nc2s1)N1CCN(Cc2ccc3c(c2)OCO3)CC1,39.7% (inactive)
7,O=C(NC1CCc2ccccc21)c1cc(COc2cncc(Cl)c2)on1 (configuration not stated),4.03% (inactive)
8,Cc1ccc(OCc2nnc(SCc3nc4ccccc4[nH]3)n2Cc2ccco2)cc1,61.9% (inactive)
9,Cc1ccc(-c2nc3ncccc3o2)cc1NC(=O)c1sc2ccccc2c1Cl,35.8% (inactive)
10,Cc1ccc(NC(=O)C(c2ccc(Cl)cc2)N2CCOCC2)cc1 (configuration not stated),49.5% (inactive)
11,CCC(NC(=O)c1cc(COc2ccc(C)nc2)on1)c1ccc(C)cc1 (configuration not stated),53.2% (inactive)
12,CCCCN(C(=O)c1ccc(NC(=O)C(C)C)cc1)c1ccccc1,31.9% (inactive)
13,COCc1ccc(CN2CCCC(C(=O)Nc3ccc(-c4cccc(OC)c4)cc3)C2)o1 (configuration not stated),41.6% (inactive)

# Source: PubChem BioAssay AID651855 (NMMLSC, 2012)
